According to patent publication US9376418B2, “Substituted pyridine spleen tyrosine kinase (SYK) inhibitors” (Merck Sharp & Dohme Corp., priority 2012, dated 2016):

The compounds below were run against T1, recombinant human GST-SYK (Homo sapiens, UniProt P43405) (assay: Homogeneous Time-Resolved Fluorescence (HTRF) assay for the recombinant human Syk enzyme). Settings: HTRF assay, recombinant human GST-SYK; IC50 given as class symbols; read-out: rhSYK Activity.
T1 construct: purchased Carna Biosciences 08-176
Type: biochemical
Method in brief: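 Phosphorylation of a biotinylated Syk substrate peptide (250 nM) was run for 45 min at room temperature with 25 μM ATP and 5 mM Mg. It followed a 10-min preincubation of GST-hSYK ([…]) with compound in 15 mM Tris-HCl pH 7.5, 2 mM DTT. Product was detected by time-resolved fluorescence using a europium anti-phosphotyrosine antibody plus SA-APC in EDTA-containing quench buffer.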

`CCC(CO)Nc1cc(-c2cc(C)cc(Nc3nccc(C(F)(F)F)n3)c2)ccn1` (stereo not shown) [Example 15.37, 2-{[4-(3-methyl-5-{[4-(trifluoromethyl)pyrimidin-2-yl]amino}phenyl)pyridin-2-yl]amino}butan-1-ol] and `Cc1cc(Nc2nccc(C(F)(F)F)n2)cc(-c2ccnc(C(O)(CO)CO)c2)c1` [Example 9.65, 2-[4-(3-methyl-5-{[4-(trifluoromethyl)pyrimidin-2-yl]amino}phenyl)pyridine-2-yl]propane-1,2,3-triol] cannot be ordered by IC50: < 100 nM for the first, < 100 nM for the second.

`Cc1cc(Nc2ncc(F)c(C)n2)cc(-c2ccc(C(C)(O)C3CCC(C(=O)O)CC3)nc2)c1` (single isomer, unassigned) [Example 9.83, trans-4-[(1R or 1S)-1-(5-{3-[(5-fluoro-4-methylpyrimidin-2-yl)amino]-5-methylphenyl}pyridin-2-yl)-1-hydroxyethyl]cyclohexanecarboxylic acid] and `Cc1cc(Nc2nccc(C)n2)cc(-c2ccc(C(C)(O)[C@H]3CC[C@H](C(=O)O)CC3)nc2)c1` (stereo partly drawn) [Example 9.23, trans-4-[1-hydroxy-1-(5-{3-methyl-5-[(4-methylpyrimidin-2-yl)amino]phenyl}pyridin-2-yl)ethyl]cyclohexanecarboxylic acid] cannot be ordered by IC50: < 100 nM for the first, < 100 nM for the second.

`Cc1cc(Nc2nccc(C(F)(F)F)n2)cc(-c2ccc(C(=O)NC3CCS(=O)(=O)C3)nc2)c1` (stereo not shown) [Example 16.54, N-(1,1-dioxidotetrahydrothiophen-3-yl)-5-(3-methyl-5-{[4-(trifluoromethyl)pyrimidin-2-yl]amino}phenyl)pyridine-2-carboxamide] and `Cc1cc(Nc2nccc(C(F)(F)F)n2)cc(-c2ccc(C(=O)NCCO)nc2)c1` [Example 16.5, N-(2-hydroxyethyl)-5-(3-methyl-5-{[4-(trifluoromethyl)pyrimidin-2-yl]amino}phenyl)pyridine-2-carboxamide] cannot be ordered by IC50: < 100 nM for the first, < 100 nM for the second.

`Cc1cc(Nc2nccc(C(F)(F)F)n2)cc(-c2ccc(S(=O)(=O)NCC(=O)O)nc2)c1` [Example 21.1, N-{[5-(3-methyl-5-{[4-(trifluoromethyl)pyrimidin-2-yl]amino}phenyl)pyridin-2-yl]sulfonyl}glycine] and `Cc1cc(Nc2nccc(C(F)(F)F)n2)cc(-c2ccc(CCC(N)=O)nc2)c1` [Example 13.3, 3-[5-(3-Methyl-5-{[4-(trifluoromethyl)pyrimidin-2-yl]amino}phenyl)pyridin-2-yl]propanamide] cannot be ordered by IC50: < 100 nM for the first, < 100 nM for the second.

`Cc1cc(Nc2nccc(C(F)(F)F)n2)cc(-c2ccc(NCC(=O)NCC(N)=O)nc2)c1` [Example 12.7, N-[5-(3-methyl-5-{[4-(trifluoromethyl)pyrimidin-2-yl]amino}phenyl)pyridin-2-yl]glycylglycinamide] and `Cc1cc(Nc2nccc(C(F)(F)F)n2)cc(-c2ccc(N[C@H](C(=O)O)C(C)(C)C)nc2)c1` [Example 7.106, 3-methyl-N-[5-(3-methyl-5-{[4-(trifluoromethyl)pyrimidin-2-yl]amino}phenyl)pyridin-2-yl]-L-valine] cannot be ordered by IC50: < 100 nM for the first, < 100 nM for the second.

First: COc1ccnc(Nc2cc(C)cc(-c3ccc([C@]4(O)CC[C@H](C(=O)O)CC4)nc3)c2)n1 [Example 9.36, trans-4-hydroxy-4-(5-{3-[(4-methoxypyrimidin-2-yl)amino]-5-methylphenyl}pyridin-2-yl)cyclohexanecarboxylic acid]
Second: COC(=O)C1CCC(O)(c2ccc(-c3cc(C)cc(Nc4nccc(C(F)(F)F)n4)c3)cn2)CC1(C)C (stereo not shown) [Example 9.41, methyl 4-hydroxy-2,2-dimethyl-4-[5-(3-methyl-5-{[4-(trifluoromethyl)pyrimidin-2-yl]amino}phenyl)pyridin-2-yl]cyclohexanecarboxylate]
The IC50 of the first is lower: < 100 nM for the first, 100 to 1000 nM for the second. The first is the more potent here.

First: Cc1cc(Nc2nccc(C(F)(F)F)n2)cc(-c2ccc(N3CCCC4(CCNC4=O)C3)nc2)c1 (stereo not shown) [Example 7.13]
Second: Cc1cc(Nc2nccc(C(F)(F)F)n2)cc(-c2ccc(N3CC[C@H]3C(=O)O)nc2)c1 [Example 7.6, (2S)-1-[5-(3-methyl-5-{[4-(trifluoromethyl)pyrimidin-2-yl]amino}phenyl)pyridin-2-yl]azetidine-2-carboxylic acid]
The IC50 of the first is higher: 100 to 1000 nM for the first, < 100 nM for the second. The second is the more potent here.

First: CCN1CCN(c2cc(-c3cc(C)cc(Nc4nccc(C(F)(F)F)n4)c3)ccn2)CC1 [Example 15.64, N-{3-[2-(4-ethylpiperazin-1-yl)pyridin-4-yl]-5-methylphenyl}-4-(trifluoromethyl)pyrimidin-2-amine]
Second: Cc1cc(Nc2nccc(C(F)(F)F)n2)cc(-c2cncc(C3(O)CCN(C(N)=O)CC3)c2)c1 [Example 10.1, 4-Hydroxy-4-[5-(3-methyl-5-{[4-(trifluoromethyl)pyrimidin-2-yl]amino}phenyl)pyridin-3-yl]piperidine-1-carboxamide]
The IC50 of the first is higher: 100 to 1000 nM for the first, < 100 nM for the second.

Compared with `Cc1cc(Nc2nccc(C(F)(F)F)n2)cc(-c2ccc(C3(O)COC(C)(C)OC3)nc2)c1` [Example 9.32, 2,2-dimethyl-5-[5-(3-methyl-5-{[4-(trifluoromethyl)pyrimidin-2-yl]amino}phenyl)pyridin-2-yl]-1,3-dioxan-5-ol], `Cc1cc(Nc2nccc(C(F)(F)F)n2)cc(-c2cncc(CCC(=O)O)c2)c1` [Example 2.86, 3-[5-(3-methyl-5-{[4-(trifluoromethyl)pyrimidin-2-yl]amino}phenyl)pyridin-3-yl]propanoic acid] is lower in IC50: 100 to 1000 nM for the first, < 100 nM for the second. The second is the more potent here.

`CCCCOC(=O)C1CCC(C(C)(O)c2ccc(-c3cc(C)cc(Nc4nccc(C(F)F)n4)c3)cn2)CC1` (single isomer, unassigned) [Example 9.51, butyl trans-4-{(1R or 1S)-1-[5-(3-{[4-(difluoromethyl)pyrimidin-2-yl]amino}-5-methylphenyl)pyridin-2-yl]-1-hydroxyethyl}cyclohexanecarboxylate] and `CCCCOC(=O)[C@H]1CC[C@H](C(C)(O)c2ccc(-c3cc(C)cc(Nc4nccc(C5CC5)n4)c3)cn2)CC1` (relative stereo) [Example 9.48, butyl trans-4-[1-(5-{3-[(4-cyclopropylpyrimidin-2-yl)amino]-5-methylphenyl}pyridin-2-yl)-1-hydroxyethyl]cyclohexanecarboxylate] fall in the same range of IC50: 100 to 1000 nM for the first, 100 to 1000 nM for the second.

Compared with `CCCCOC(=O)C1CCC(C(C)(O)c2ccc(-c3cc(C)cc(Nc4ncc(Cl)c(C)n4)c3)cn2)CC1` (single isomer, unassigned) [Example 9.53, butyl trans-4-[(1R or 1S)-1-(5-{3-[(5-chloro-4-methylpyrimidin-2-yl)amino]-5-methylphenyl}pyridin-2-yl)-1-hydroxyethyl]cyclohexanecarboxylate], `Cc1cc(Nc2nccc(C(F)(F)F)n2)cc(-c2ccc(N[C@@H](Cc3ccccc3)C(=O)O)nc2)c1` [Example 7.97, N-[5-(3-methyl-5-{[4-(trifluoromethyl)pyrimidin-2-yl]amino}phenyl)pyridin-2-yl]-L-phenylalanine] is lower in IC50: 100 to 1000 nM for the first, < 100 nM for the second.

`CC(C)(Nc1ccc(-c2cccc(Nc3nccc(C(F)(F)F)n3)c2)cn1)C(=O)O` [Example 7.125, 2-methyl-N-[5-(3-{[4-(trifluoromethyl)pyrimidin-2-yl]amino}phenyl)pyridin-2-yl]alanine] and `O=C1NCCC1Nc1ccc(-c2cccc(Nc3nccc(C(F)(F)F)n3)c2)cn1` (stereo not shown) [Example 7.124, 3-{[5-(3-{[4-(trifluoromethyl)pyrimidin-2-yl]amino}phenyl)pyridin-2-yl]amino}pyrrolidin-2-one] cannot be ordered by IC50: < 100 nM for the first, < 100 nM for the second.

For `COc1ccnc(Nc2cc(C)cc(-c3cccc(CCC(=O)O)n3)c2)n1` [Example 2.2], the IC50 was < 100 nM.
